The Ki is a dissociation constant, usually derived from enzyme kinetics or from competition with a known ligand. One may read the EC50 as the concentration giving half of the maximal effect.

Results on one compound are retold here after patent US10456439B2, “NK3 agonist for use in the treatment of a patient suffering from atrial arrhythmia or fibrillation” (priority 2014, dated 2019).

“Also recorded” adds a separate entry of the source. Where a SMILES comes first, the peptide text is derived from it.

Experiment [1] has as its system left atrium of Langendorff-perfused rabbit heart. The experiment can be described thus: Left atrial effective refractory period in Langendorff-perfused rabbit hearts. How it is done:
(§1) After the heart was excised, it was cannulated, quickly mounted on a Langendorff perfusion set-up, and perfused at 37° C. with a solution containing (in mmol/L) 128 NaCl, 4.7 KCl, 1.45 CaCl2), 0.6 MgCl2, 27 NaHCO3, 0.4 NaH2PO4, and 11 glucose (pH maintained at 7.4 by equilibration with a mixture of 95% 02 and 5% CO2). The left atrium (ventricle) was stimulated at a basic cycle length of 200 ms, and twice the diastolic stimulus current threshold. […] The effective refractory period was defined as the longest S1-S2 interval failing to produce atrial (ventricular) activation.

For experiment [2], the system named is ventricle of Langendorff-perfused rabbit heart. The experiment in a line: Ventricular effective refractory period in Langendorff-perfused rabbit hearts. The conditions noted are these: 20-50 nM Senktide. How it is done:
as §1

The subject of experiment [3] is left atrium of anesthetized rabbit. The experiment can be described thus: In vivo left atrial effective refractory period in the anesthetised rabbit. The conditions noted are these: single bolus 11 nmol/kg, basic cycle length 220 ms, control 110 ms. How it is done: Male New Zealand White rabbits were anesthetized with ketamine 50 mg/kg and xylazine 8 mg/kg (and additionally 0.09 mg/kg Temgesic for pain relief) subcutaneously, intubated, and artificially ventilated. Anesthesia was maintained by isoflurane (0.8-1.2%). Catheters for drug infusions and blood pressure recording were inserted into marginal ear veins/arteries. Following thoracotomy, the pericardium was opened to expose the heart. A stimulation- and recording-electrode were placed on the left atrium for epicardial electrophysiological study. The left atrium was stimulated at a basic cycle length of 220 ms, and twice the diastolic stimulus current threshold. […] The effective refractory period was defined as the longest S1-S2 interval failing to produce atrial activation. Approximately 30 minutes after the completion of the preparation when the rabbit was hemodynamically and electrophysiologically stable, control measurements were undertaken.

Experiment [4] concerns human left atrial appendage (LAA). The experiment in a line: Effective refractory period in human left atrial appendages. The conditions noted are these: basic cycle length 600 ms. The text has this:
Left atrial appendages (LAA) were routinely removed from patients with atrial fibrillation receiving PVI (pulmonary vein isolation) ablation. The LAAs were removed using an endoscopic stapling device (Endo Gia stapler, Tyco Healthcare Group). The tissue samples were transported in 100-mL cooled superfusion fluid (Na^+, 155.5 mmol/L; K^+, 4.7 mmol/L; Ca^2+, 1.45 mmol/L; Mg^2+, 0.6 mmol/L; Cl^−, 136.6 mmol/L; HCO3^−, 27 mmol/L; PO4^3−, 0.4 mmol/L; glucose, 11.1 mmol/L; and heparin, 1000 IE) and submerged in a tissue bath. The superfusion fluid was kept at a stable temperature of 36.5° C. to 37.5° C. and oxygenized with a mixture of 95% O2 and 5% CO2 to maintain a pH of 7.4. LAAs were stimulated at 100 beats per minute at 2-3 times diastolic threshold with a pulse width of 2 ms using an epicardial electrode.
The effective refractory period was defined as the longest S1-S2 interval failing to produce atrial (ventricular) activation.

Experiment [5] deals with T1, Murine NK3 receptor (Mus musculus, UniProt P47937).
T1 construct: expressed in transfected cells; host or cells: HEK 293
T1 sequence (P47937 1-452): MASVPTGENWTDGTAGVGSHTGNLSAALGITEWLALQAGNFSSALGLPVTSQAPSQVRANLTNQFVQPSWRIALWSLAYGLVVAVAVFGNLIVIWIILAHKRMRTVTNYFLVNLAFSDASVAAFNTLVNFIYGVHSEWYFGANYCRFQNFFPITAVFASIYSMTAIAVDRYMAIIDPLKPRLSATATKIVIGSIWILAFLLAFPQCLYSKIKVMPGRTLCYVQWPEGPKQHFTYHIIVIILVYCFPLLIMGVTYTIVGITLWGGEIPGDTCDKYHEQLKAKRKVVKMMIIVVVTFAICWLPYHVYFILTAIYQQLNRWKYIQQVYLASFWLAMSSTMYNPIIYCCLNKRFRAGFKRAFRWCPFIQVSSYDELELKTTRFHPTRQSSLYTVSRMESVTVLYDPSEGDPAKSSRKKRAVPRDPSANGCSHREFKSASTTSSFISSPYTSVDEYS
The conditions noted are these: read-out: Binding (Inhibition of [125I]-[MePhe7]neurokinin B) Murine NK3 receptor, Ki; HEK 293-murine NK3 receptor cells; mean ± SEM; cited from earlier work.

For experiment [6], the target named is T1, Murine NK3 receptor. The following applies: HEK 293-murine NK3 receptor cells; mean ± SEM; read-out: Ca2+ Mobilization Murine NK3 receptor, EC50; cited from earlier work. (Calcium flux is commonly read through the fluorescence of an indicator in the cells.)
Experiment [7] concerns rabbit atrial myocytes. The experiment can be described thus: Action potential recording (perforated patch clamp) in rabbit atrial myocytes. The conditions noted are these: increasing concentrations, result in words.
Procedure: (§2) Male New Zealand White specified pathogen free rabbits (2.5-3.5 kg) were anaesthetized with a combination of 20 mg xylazine and 100 mg ketamine (intramuscularly) and heparinized with a bolus of 1000 IU heparin (intravenously). Subsequently, the animals were killed by 200 mg pentobarbital intravenously, after which the heart was quickly excised and mounted on a langendorff perfusion apparatus. […] Single atrial cells were isolated from the left atrium using the same protocol with a modification consisting of complementing the enzymatic solution with 6.6 pg/mL protease.
(§3) Small aliquots of single cell suspension were introduced into a recording chamber on the stage of an inverted microscope. Cells were allowed to adhere for 5 minutes after which superfusion was started. Single quiescent rod-shaped myocytes with clear cross-striations and smooth surfaces were selected for measurements.
(§4) Voltage control, data acquisition, and analysis were performed using custom-made software.
(§5) Potentials were corrected for liquid junction potential [3]. Signals were low-pass filtered (cut-off frequency: 5 kHz) and digitized at 40 kHz. Cell membrane capacitance (Cm) was estimated by dividing the decay time constant of the capacitive transient in response to 5 mV hyperpolarizing voltage clamp steps from a holding potential of −40 mV, by the series resistance.
(§6) APs were measured with the amphotericin-B-perforated patch clamp technique using normal Tyrode's solution containing (in mM): NaCl 140, KCl 5.4, CaCl2 1.8, MgCl2 1.0, glucose 5.5, HEPES 5.0, pH 7.4 (NaOH). The patch-pipettes (borosilicate glass; 1-3 MΩ) were filled with a ‘standard’ solution containing (in mM): K-gluconate 110, KCl 30, NaCl 5, MgCl2 1, amphotericin-B 0.22, HEPES 10, pH 7.3 (KOH).
(§7) APs were elicited at 2 Hz by 2-ms (1.5×diastolic stimulation threshold) current pulses applied through the patch pipette. […] Values obtained from 10 consecutive APs were averaged.
(§8) The NK-agonists were applied in a cumulative sequence with 5 minutes intervals between increments in concentration. Effects were assessed after equilibration, but not earlier than 3 minutes after application.
The subject of experiment [8] is rabbit ventricular myocytes. The experiment can be described thus: Action potential recording (perforated patch clamp) in rabbit ventricular myocytes. The conditions noted are these: 2 Hz, 1-10 μM substance P or 100 nM Senktide. (In general: In patch-clamp work, channel activity is measured electrically.)
Procedure: as §2, §3, §4, §5, §6, §7, §8

Take `CSCC[C@H](NC(=O)[C@H](CC(C)C)NC(=O)CNC(=O)[C@H](Cc1ccccc1)N(C)C(=O)[C@H](Cc1ccccc1)NC(=O)[C@H](CC(=O)O)NC(=O)CCC(=O)O)C(N)=O` [Senktide, N-(3-carboxy-1-oxopropyl)-L-α-aspartyl-L-phenylalanyl-N-methyl-L-phenylalanylglycyl-L-leucyl-L-methioninamide] (HELM PEPTIDE1{[O=C(O)CCC(=O)[*:2]].D.F.[meF].G.L.M.[am]}$$$$V2.0): the “Longest S1-S2 interval that fails to produce atrial activation (A-ERP)” value in experiment [1] (750 nM Senktide, basic cycle length 200 ms, control 80 ms) was found to be 100 ms. Further, the “Effect on atrial effective refractory period, in words” value in experiment [1] (Langendorff-perfused rabbit heart) is reported as “prolongs the atrial refractory period”. Besides, in experiment [1] (Langendorff-perfused rabbit heart, difference to control), the “Prolongation of the S1-S2 interval measured in the left atrium” value is on record as 20 ms. In experiment [2], the “Effect on ventricular effective refractory period (V-ERP)” value is given as “not affected”. Further, the “Longest S1-S2 interval that fails to produce atrial activation (A-ERP) in vivo” value in experiment [3] stood at 160 ms. Besides, the “Longest S1-S2 interval that fails to produce atrial activation (ERP) in human LAA” value in experiment [4] (50 nM Senktide, control 290 ms) is 440 ms. The “Effective refractory period in human LAA after wash out” value in experiment [4] (wash out after 50 nM Senktide) was found to be 320 ms. The Ki in experiment [5] is 11.9 ± 2.1 nM. For the same compound, in experiment [6], the EC50 is 0.15 ± 0.09 nM. For the same compound, the “Effect on atrial action potential (AP) duration” value in experiment [7] is recorded as “significantly prolongs the AP duration”. Besides, in experiment [8], the “Effect on ventricular action potential (AP) duration” value was “absence of effect; also recorded: does not prolong the AP”.
